Data as given in patent US20110268807A1, “Biodegradable Microspheres and Methods of Use Thereof” (priority 2008, published 2011).

How the values were obtained:
[1] = Release of atropine from hydrogel in medium at 37° C., static conditions; assay type: physicochemical
Source text: FIG. 16 depicts release rate of atropine from hydrogel. […] Hydrogel for the second release test (B) was soaked in excess drug solution to reach maximum swelling. Almost no drug retention was observed; therefore, the release is approximately zero.

[2] = Atropine release per cycle (atropine content in filtrate), nanoparticles; assay type: physicochemical; conditions: FIG. 17B
Source text: FIGS. 17A and 17B depict atropine release. […] The first sharp decrease in atropine release would be related to the excess atropine in solution. The slow release characteristic of the second slope would be the drug release associated with nanoparticle degradation.

For `CN1[C@@H]2CC[C@H]1C[C@@H](OC(=O)C(CO)c1ccccc1)C2` (stereo partly shown) [atropine], the “atropine release from hydrogel” value ([1]; first preliminary test (A): hydrogel absorbed all of the drug solution, medium at 37° C., static conditions) was 68%, the “time course of atropine release from hydrogel” value ([1]; first preliminary test (A), burst effect) was “most of which occurred during the first two hours” and the “atropine release from hydrogel” value ([1]; second release test (B): hydrogel soaked in excess drug solution to maximum swelling, almost no drug retention) was “approximately zero”. The “cumulative release percentage per cycle” value [2] was “all the atropine was release by the seventh cycle”.
